Laboratory results from US20080103205A1, “Pesticidal compositions and methods of use” (priority 2006, published 2008).
Where “and” joins values, the source holds several entries; their conditions need not be identical. Equal values may be shown once. Read-outs that look alike come from different tables or passages of the source.

Legend:
Meloidogyne incognita = experiment: Toxicity test, J2 juveniles of Meloidogyne incognita, 96 well micro plate; type: in vivo; conditions: for mortality at 50 ppm / mortality at 100 ppm / mortality at 200 ppm / mortality at 300 ppm / mortality at 400 ppm: Meloidogyne incognita
Experimental: Methodology: Toxicity tests were conducted using J2 juveniles of Meloidogyne incognita adult Caenorhabditis elegans collected from nematode-infested tomato plant roots and culture Petri plates, respectively. Test concentrations of 50, 100, 200, 300, or 400 ppm were prepared in 0.2% dimethylsulfoxide (DMSO) in tap water. Aliquots (300 microliters (ul)) were applied to a 96 well micro plate and a 20 ul aqueous solution containing nematodes was added. The number of nematodes in 20 ul ranged from 17 to 30. Micro plates were sealed with Parafilm™ and incubated at room temperature. Similar tests conducted with 0.2% DMSO in tap water served as controls. Nematode mortality was checked at 24, 48, 72, 120, and 168 hr after incubation. Nematodes that were motionless for 30 sec when observed under a stereomicroscope were considered paralyzed and included in mortality counts. Each concentration was replicated five times and mean percent mortality was calculated after correcting for control mortality using Abbott's formula.
Data Analysis: Mortality data were analyzed using PROC PROBIT (SAS) program and LC50 values were estimated.

[1] = test system: European corn borer (Ostrinia nubilalis); experiment: Diet surface test on European corn borer larvae (2nd instar); type: in vivo; conditions: for mortality at 6.25 ppm / mortality at 12.5 ppm / mortality at 25 ppm / mortality at 50 ppm: Ostrinia nubilalis, read-out: % Mortality
Experimental: Concentrations of 6.25, 12.5, 25, or 50 ppm AT blocker were prepared in 95% ethyl alcohol (EtOH). 95% EtOH alone served as control. European corn borer (ECB) diet prepared from the powdered diet supplied by French Agricultural Research, Inc. Diet (1-2 ml) was poured into small cups and allowed to cool to room temperature. Test solution (100 ul) was placed onto the diet surface and allowed to evaporate the solvent. Each concentration of chemical had 2 sets of 10 cups each. One late 2nd instar larva was placed in each cup and covered with lid having perforations for aeration. Cups were placed in an incubator for 7 days at 25±1° C. and 70±5% RH. After seven days, the weight of each larva was taken and any mortality was recorded. Then, the surviving larvae were transferred to fresh diet cups holding sufficient diet (5-6 ml) without chemicals and incubated at 25±1° C. and 70±5% RH until pupation. Weights of larvae were taken 14 days after transferring to fresh diet (21 days after start of treatment). Finally, the number of days until pupation was recorded.
Anion transporters caused larval death and a reduction in weight gain within 7 days exposure. The effect persisted for 2 weeks time on untreated diet, but total time to pupation was relatively unaffected.

[2] = 24 hr, read-out: Corrected Mortality (%)
[3] = 48 hr, read-out: Corrected Mortality (%)
[4] = 72 hr, read-out: Corrected Mortality (%)
[5] = 120 hr, read-out: Corrected Mortality (%)
[6] = 120 hr, read-out: Mortality (%)
[7] = 168 hr, read-out: Corrected Mortality (%)
[8] = 168 hr, read-out: Mortality (%)
[9] = 6.25 ppm, 21 days after feeding
[10] = 12.5 ppm, 21 days after feeding
[11] = 50 ppm, 7 days after feeding, 10 larvae treated
[12] = 50 ppm, 21 days after feeding, 10 larvae treated

O=S(=O)(O)c1cc(N=C=S)ccc1/C=C/c1ccc(N=C=S)cc1S(=O)(=O)O [DIDS, trans-4,4′-diisothiocyanatostilbene-2,2′-disulfonic acid, reference compound]
LC50 (ppm) (Meloidogyne incognita; Day 2): 356 ppm | LC50 (ppm) (Meloidogyne incognita; Day 3): 36 ppm | LC50 (ppm) (Meloidogyne incognita; Day 5): 20 ppm | LC50 (ppm) (Meloidogyne incognita; Day 7): 4 ppm | mortality at 50 ppm (Meloidogyne incognita; [2]): 9% | mortality at 50 ppm (Meloidogyne incognita; 24 hr, read-out: Mortality (%)): 11% | mortality at 50 ppm (Meloidogyne incognita; [3]): 36% | mortality at 50 ppm (Meloidogyne incognita; 48 hr, read-out: Mortality (%)): 39% | mortality at 50 ppm (Meloidogyne incognita; [4]): 56% | mortality at 50 ppm (Meloidogyne incognita; 72 hr, read-out: Mortality (%)): 59% | mortality at 50 ppm (Meloidogyne incognita; [5]): 73% | mortality at 50 ppm (Meloidogyne incognita; [6]): 75% | mortality at 50 ppm (Meloidogyne incognita; [7]): 98% | mortality at 50 ppm (Meloidogyne incognita; [8]): 98% | mortality at 100 ppm (Meloidogyne incognita; [2]): 16% | mortality at 100 ppm (Meloidogyne incognita; 24 hr, read-out: Mortality (%)): 18% | mortality at 100 ppm (Meloidogyne incognita; [3]): 39% | mortality at 100 ppm (Meloidogyne incognita; 48 hr, read-out: Mortality (%)): 41% | mortality at 100 ppm (Meloidogyne incognita; [4]): 61% | mortality at 100 ppm (Meloidogyne incognita; 72 hr, read-out: Mortality (%)): 64% | mortality at 100 ppm (Meloidogyne incognita; [5]): 84% | mortality at 100 ppm (Meloidogyne incognita; [6]): 85% | mortality at 100 ppm (Meloidogyne incognita; [7]): 99% | mortality at 100 ppm (Meloidogyne incognita; [8]): 99% | mortality at 200 ppm (Meloidogyne incognita; [2]): 19% | mortality at 200 ppm (Meloidogyne incognita; 24 hr, read-out: Mortality (%)): 21% | mortality at 200 ppm (Meloidogyne incognita; [3]): 43% | mortality at 200 ppm (Meloidogyne incognita; 48 hr, read-out: Mortality (%)): 45% | mortality at 200 ppm (Meloidogyne incognita; [4]): 67% | mortality at 200 ppm (Meloidogyne incognita; 72 hr, read-out: Mortality (%)): 69% | mortality at 200 ppm (Meloidogyne incognita; [5]): 90% | mortality at 200 ppm (Meloidogyne incognita; [6]): 91% | mortality at 200 ppm (Meloidogyne incognita; [7]): 100% | mortality at 200 ppm (Meloidogyne incognita; [8]): 100% | mortality at 300 ppm (Meloidogyne incognita; [2]): 20% | mortality at 300 ppm (Meloidogyne incognita; 24 hr, read-out: Mortality (%)): 22% | mortality at 300 ppm (Meloidogyne incognita; [3]): 46% | mortality at 300 ppm (Meloidogyne incognita; 48 hr, read-out: Mortality (%)): 48% | mortality at 300 ppm (Meloidogyne incognita; [4]): 77% | mortality at 300 ppm (Meloidogyne incognita; 72 hr, read-out: Mortality (%)): 79% | mortality at 300 ppm (Meloidogyne incognita; [5]): 96% | mortality at 300 ppm (Meloidogyne incognita; [6]): 96% | mortality at 300 ppm (Meloidogyne incognita; [7]): 100% | mortality at 300 ppm (Meloidogyne incognita; [8]): 100% | mortality at 400 ppm (Meloidogyne incognita; [2]): 22% | mortality at 400 ppm (Meloidogyne incognita; 24 hr, read-out: Mortality (%)): 24% | mortality at 400 ppm (Meloidogyne incognita; [3]): 55% | mortality at 400 ppm (Meloidogyne incognita; 48 hr, read-out: Mortality (%)): 57% | mortality at 400 ppm (Meloidogyne incognita; [4]): 78% | mortality at 400 ppm (Meloidogyne incognita; 72 hr, read-out: Mortality (%)): 89% | mortality at 400 ppm (Meloidogyne incognita; [5]): 100% | mortality at 400 ppm (Meloidogyne incognita; [6]): 100% | mortality at 400 ppm (Meloidogyne incognita; [7]): 100% | mortality at 400 ppm (Meloidogyne incognita; [8]): 100% | Days for pupation ([1]; 6.25 ppm): 24.6 days and 25.0 days | % wt reduction to control ([1]; 6.25 ppm, 7 days after feeding): 12.76% and 9.12% | Mean wt of survived larvae, mg ([1]; 6.25 ppm, 7 days after feeding): 41.56 (10) mg and 44.84 (10) mg | No. dead ([1]; 6.25 ppm, 7 days after feeding, 10 larvae): 0 | % wt reduction to control [1, 9]: 5.69% and 7.74% | Mean wt of survived larvae, mg [1, 9]: 156.66 (10) mg and 135.14 (10) mg | No. dead ([1]; 6.25 ppm, 21 days after feeding, 10 larvae): 0 | Days for pupation ([1]; 12.5 ppm): 25.2 days and 25.8 days | % wt reduction to control ([1]; 12.5 ppm, 7 days after feeding): 39.67% and 36.72% | Mean wt of survived larvae, mg ([1]; 12.5 ppm, 7 days after feeding): 28.74 (10) mg and 31.22 (10) mg | No. dead ([1]; 12.5 ppm, 7 days after feeding, 10 larvae): 0 | % wt reduction to control [1, 10]: 32.84% and 33.04% | Mean wt of survived larvae, mg [1, 10]: 111.56 (10) mg and 98.08 (10) mg | No. dead ([1]; 12.5 ppm, 21 days after feeding, 10 larvae): 0 | Days for pupation ([1]; 25 ppm): 27.25 days and 27.0 days | % wt reduction to control ([1]; 25 ppm, 7 days after feeding): 66.06% and 65.00% | Mean wt of survived larvae, mg ([1]; 25 ppm, 7 days after feeding): 16.17 (8) mg and 17.26 (6) mg | No. dead ([1]; 25 ppm, 7 days after feeding, 10 larvae): 2 and 4 | % wt reduction to control ([1]; 25 ppm, 21 days after feeding): 70.08% and 70.62% | Mean wt of survived larvae, mg ([1]; 25 ppm, 21 days after feeding): 49.70 (6) mg and 43.03 (6) mg | No. dead ([1]; 25 ppm, 21 days after feeding, 10 larvae): 4 | Days for pupation ([1]; 50 ppm in (Hepes)): 24.6 days | Mean wt of survived larvae, mg ([1]; 50 ppm in (Hepes), 7 days after feeding): 43.33 mg | No. dead ([1]; 50 ppm in (Hepes), 7 days after feeding, 10 larvae): 0 | Mean wt of survived larvae, mg ([1]; 50 ppm in (Hepes), 21 days after feeding): 137.36 mg | No. dead ([1]; 50 ppm in (Hepes), 21 days after feeding, 10 larvae): 0 | % wt reduction to control ([1]; 50 ppm, 7 days after feeding): 87.93% and 92.70% | Mean wt of survived larvae ([1]; 50 ppm, 7 days after feeding): 43.33 mg | Mean wt of survived larvae, mg ([1]; 50 ppm, 7 days after feeding): 5.75 (4) mg and 3.60 (1) mg | No. dead ([1]; 50 ppm, 7 days after feeding, 10 larvae): 6 and 8 | # surviving [1, 11]: 10 | No. dead [1, 11]: 0 | % wt reduction to control ([1]; 50 ppm, 21 days after feeding): 0% | Mean wt of survived larvae ([1]; 50 ppm, 21 days after feeding): 137.36 mg | Mean wt of survived larvae, mg ([1]; 50 ppm, 21 days after feeding): 0 mg | No. dead ([1]; 50 ppm, 21 days after feeding, 10 larvae): 10 | # surviving [1, 12]: 10 | No. dead [1, 12]: 0 | mortality at 6.25 ppm ([1]; 168 h, 6.25 ppm, 7 days after feeding): 0% | mortality at 12.5 ppm ([1]; 168 h, 12.5 ppm, 7 days after feeding): 0% | mortality at 25 ppm ([1]; 168 h, 25 ppm, 7 days after feeding): 20% | mortality at 50 ppm ([1]; 168 h, 50 ppm in (Hepes), 7 days after feeding): 0% | mortality at 6.25 ppm ([1]; 504 h, 6.25 ppm, 21 days after feeding): 0% | mortality at 12.5 ppm ([1]; 504 h, 12.5 ppm, 21 days after feeding): 0% | mortality at 25 ppm ([1]; 504 h, 25 ppm, 21 days after feeding): 40% | mortality at 50 ppm ([1]; 504 h, 50 ppm in (Hepes), 21 days after feeding): 0%
